Consider 86 compounds from PubChem BioAssay AID1959 (Broad Institute, 2009).

SMILES strings stand for the structures. Activity calls are given as the source filed them.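 How the source made its calls: active means growth-inhibition EC50 no more than tenfold above the top tested dose; inconclusive means flat fit between 30% and 70% inhibition, or unreliable fit; inactive means EC50 more than tenfold above the top tested dose.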

This experiment concerns E. coli NEB5alpha growth, BacTiter-Glo luminescence, 4 h. The experiment can be described thus: Escherichia coli growth inhibition, dose response, counter-screen for MEX-5/POS-1 RNA-binding inhibitor project, luminescence, NEB5alpha (AID 1959).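 Further: pUC19-transformed ampicillin-resistant cells grown in LB with ampicillin.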
By EC50 is commonly meant the concentration that produces a half-maximal response. For the compound `Oc1ccc(-c2nc(-c3ccc(O)c(O)c3)cs2)cc1`, the EC50 was > 11 µM (inactive).

In the case of `COc1ccc(Nc2ncnc3nc[nH]c23)cc1OC`, the EC50 is > 11 µM (inactive).

As to `Cc1cc(C)cc(-n2c(O)c(C=Nc3ccc(N4CCOCC4)cc3)c(=O)[nH]c2=S)c1`, the EC50 is > 11 µM (inactive).

Regarding `CC1=NN(c2cccc(C(=O)O)c2)C(=O)/C1=C\C=C\c1ccco1`, the EC50 was > 11 µM (inactive).

Regarding `C[C@H]1c2cccc(O)c2C(O)=C2C(=O)[C@]3(O)C(O)=C(C(N)=O)C(=O)[C@@H](N(C)C)C3[C@@H](O)C21` (stereo partly specified), the concentration for a half-maximal effect (EC50) is 4.58 µM.

As to `N=c1c(C(=O)NC2CCCC2)cc2c(=O)n3ccccc3nc2n1Cc1ccccc1`, the EC50 is > 11 µM (inactive).

Turning to `CC1N(C)c2cccc3cccc(c23)N1C`, the EC50 is > 11 µM (inactive).

As for `CC(C)CNC(=O)C1Nc2ccccc2C2C=CCC12` (stereo unspecified), the EC50 was > 11 µM (inactive).

Regarding `CCN(CC)c1ccc(C=N/C(C#N)=C(\N)C#N)cc1`, the EC50 was > 11 µM (inactive).

For the compound `N=c1c(C(=O)NCC2CCCO2)cc2c(=O)n3ccccc3nc2n1Cc1cccnc1` (stereo unspecified), the EC50 was > 11 µM (inactive).

Regarding `Cc1ccc(Cl)c2c1=NC(=O)C=2c1[nH]c(=S)[nH]c1O`, the EC50 is > 11 µM (inactive).

As to `CCOC(=O)C1=C2NC(=O)c3ccccc3N2C(=O)C1`, the EC50 is > 11 µM (inactive).

Take `O=C(N1CCOCC1)N1CCC(n2nnc3cc(F)ccc32)CC1`: the EC50 is > 11 µM (inactive).

As to `Cc1ccccc1NC(=O)/C(C#N)=C/c1ccc(-c2ccc(Cl)c(C(=O)O)c2)o1`, the EC50 is > 11 µM (inactive).

Consider `O=C(O)CCc1ccc(-c2ccccc2)n1-c1ccc(C(=O)O)cc1`, for which the EC50 is > 11 µM (inactive).

Consider `COc1ccc(-c2cc(C(=O)N/N=C(\C)c3ccco3)c3ccccc3n2)c(OC)c1`, for which the EC50 was > 11 µM (inactive).

For `COC(=O)c1ccc(-n2c(C)cc(/C=N/Nc3nc(C)cc(=O)[nH]3)c2C)cc1`, the EC50 was > 11 µM (inactive).

Consider `CCCC[n+]1ccn(C2=C([O-])c3ccccc3C(=O)/C2=N\S(=O)(=O)c2ccc(Cl)cc2)c1`, for which the EC50 was > 11 µM (inactive).

As for `CCCn1nc(C(=O)Nc2ccc(S(=O)(=O)Nc3nccs3)cc2)c2ccccc2c1=O`, the EC50 was > 11 µM (inactive).

Consider `CCSC1=N/C(=C\c2ccccc2)C(=O)N1`, for which the EC50 is > 11 µM (inactive).

Regarding `C/C(=N/N=C(\C)c1ccccc1O)c1ccccc1O`, the EC50 was > 11 µM (inactive).

On to `Nc1ncnc(NNC(=O)CNC(=O)c2c(F)cccc2Cl)c1[N+](=O)[O-]`, for which the EC50 is > 11 µM (inactive).

For the compound `CC1=Nc2ccccc2/C1=C\c1nc(-c2ccc(F)cc2)oc1O`, the EC50 was > 11 µM (inactive).

As for `COCCN1CCC(CNCc2c(C(=O)N3CCCCC3)nc3c(C)cccn23)C1` (stereo unspecified), the EC50 is > 11 µM (inactive).

In the case of `CCOc1ccc2ccccc2c1C1NC(=O)N(C)C(C)=C1C(=O)OCCOC` (stereo unspecified), the EC50 is > 11 µM (inactive).

On to `O=c1[nH]c(=S)[nH]c2[nH]c(=S)[nH]c12`, for which the EC50 was > 11 µM (inactive).

As to `Cc1cccn2c(=O)c3cc(C(=O)NCc4ccco4)c(=N)n(C(C)C)c3nc12`, the EC50 is > 11 µM (inactive).

Take `Cc1ccc2cc(/C=C(\C#N)C(N)=O)c(N3CCCCC3)nc2c1`: the EC50 was > 11 µM (inactive).

Consider `C=CCN1C(=O)S/C(=C\c2ccc(N3CCOCC3)cc2C)C1=O`, for which the EC50 is > 11 µM (inactive).

As to `CC1(OC(=O)c2cccs2)C(=O)C=C2C=C(c3ccc(C#N)cc3)OC=C2C1=O` (stereo unspecified), the EC50 is > 11 µM (inactive).

As for `Cc1cccc(/C=C(\C(=O)C(=O)O)c2ccc3ccccc3n2)c1`, the EC50 was > 11 µM (inactive).

As for `CC(C)c1ccc(/C=C(\NC(=O)c2ccccc2)C(=O)NCCN2CCOCC2)cc1`, the EC50 is > 11 µM (inactive).

In the case of `CCOC(=O)[C@@]1(C#N)C(c2ccc(Cl)c(Cl)c2)[C@H](C(N)=O)N2C=C(C(C)=O)C=C[C@H]21` (stereo partly specified), the EC50 was > 11 µM (inactive).

With `CN1C(=O)c2cccc3c(N)ccc(c23)C1=O`, the EC50 is > 11 µM (inactive).

As to `CCn1c(C)cc(=S)c2ccccc21`, the EC50 is > 11 µM (inactive).

On to `CC(=O)n1c(C=Nc2ccccc2)c(O)c2ccccc21`, for which the EC50 was > 11 µM (inactive).

With `Oc1ccc(-c2csc(Nc3ccccn3)n2)cc1O`, the EC50 is > 11 µM (inactive).

`O=C(NNC(=O)c1csc(-c2cccnc2)n1)c1ccccc1`: the EC50 is > 11 µM (inactive).

`CC(C)(C)NC(=S)NCCc1ccccc1`: the EC50 is > 11 µM (inactive).

For the compound `COc1ccc(-c2onc3ccc(C(C)=O)cc23)cc1`, the EC50 was > 11 µM (inactive).

In the case of `Cc1cc(C)nc(NNC2=CC(=O)CC(C)(C)C2)n1`, the EC50 was > 11 µM (inactive).

Consider `Cc1cccc(-c2c3c(=O)n(C)c(=O)n(C)c3c3cccnn23)c1`, for which the EC50 was > 11 µM (inactive).

For `Cc1cc([N+](=O)[O-])nn1CC(=O)NNC(=S)Nc1ccc([N+](=O)[O-])cc1`, the EC50 was > 11 µM (inactive).

As to `Cc1ccc(NC(=O)Cn2c(=O)c(C)nc3ccccc32)cc1`, the EC50 is > 11 µM (inactive).

With `COc1ccc(C2C(C#N)=C(N)OC3=C2C(=O)CCC3)cc1OC` (stereo unspecified), the EC50 is > 11 µM (inactive).

`Oc1ccc2ccccc2c1C=Nc1ccc(N2CCOCC2)cc1`: the EC50 was > 11 µM (inactive).

For the compound `CCN(CC)C(=O)CSc1nnc2nnc3cc(OC)ccc3n12`, the EC50 was > 11 µM (inactive).

`Cc1c(C(=O)O)cccc1-n1c(C)cc(/C=N/NC(=O)c2cc3ccccc3o2)c1C`: the EC50 is > 11 µM (inactive).

As to `CCOC(=O)c1ccc(-n2c(CCC(=O)O)ccc2-c2ccc(F)cc2)cc1`, the EC50 is > 11 µM (inactive).

For `Cc1cc(/C=C2\C(=O)NC(=O)N(C)C2=O)c(C)n1-c1ccc2c(c1)OCO2`, the EC50 is > 11 µM (inactive).

Regarding `N=c1n(CC(=O)c2ccc([N+](=O)[O-])cc2)c2ccccc2n1Cc1ccc(Cl)cc1`, the EC50 was > 11 µM (inactive).

As to `COc1ccc(-c2cc3ccc(OCC(N)=O)cc3oc2=O)cc1OC`, the EC50 is > 11 µM (inactive).

On to `CCOC(=O)c1c(-c2ccccc2)csc1NC(=O)/C(C#N)=C/c1ccc(OC)c(OC)c1`, for which the EC50 is > 11 µM (inactive).

As for `COc1ccc(/C=C2\SC(=S)N(CCC(=O)NC3CCCC3)C2=O)cc1OC`, the EC50 is > 11 µM (inactive).

In the case of `CCOc1ccc(Br)cc1S(=O)(=O)NC(=O)c1ccccc1`, the EC50 was > 11 µM (inactive).

With `O=C(O)CCc1ccc(-c2ccccc2)n1-c1cccc(C(=O)O)c1`, the EC50 is > 11 µM (inactive).

Consider `Cc1c(C=N)c(O)n(C)c(=O)c1C#N`, for which the EC50 was > 11 µM (inactive).

As to `CCOC(=O)C1CCN(C(=O)c2ccc3c(c2)NC(=O)/C(=C\c2ccc(C)cc2)S3)CC1`, the EC50 is > 11 µM (inactive).

`Cc1ccc(C)c(N(C)C(=O)c2coc(=O)c3ccccc23)c1`: the EC50 was > 11 µM (inactive).

In the case of `CC(=O)/C(N=Nc1nc2c([nH]1)c(=O)n(C)c(=O)n2C)=C(\C)O`, the EC50 is > 11 µM (inactive).

Consider `COc1cccc(F)c1C(=O)NC(=O)Nc1ccc2nc(C)oc2c1`, for which the EC50 was > 11 µM (inactive).

As to `COc1ccccc1NCC(=O)N/N=C/c1c(O)ccc2ccccc12`, the EC50 was > 11 µM (inactive).

Consider `CNc1ccc2nc3ccccc3[n+](C)c2c1`, for which the EC50 was > 11 µM (inactive).

As for `Cc1cc(/C=N/Nc2ccc([N+](=O)[O-])cn2)c(C)n1-c1cccc(C(=O)O)c1`, the EC50 was > 11 µM (inactive).

As for `COc1ccc(C(=O)Nc2nnc(CC(=O)N/N=C/c3ccc(O)cc3O)s2)cc1`, the EC50 is > 11 µM (inactive).

On to `CNCc1ccccc1Sc1ccc(O)c(O)c1`, for which the EC50 is > 11 µM (inactive).

`O=C1C2CC=C(Cl)CC2C(=O)N1CCCCCCN1C(=O)C2CC=C(Cl)CC2C1=O` (stereo unspecified): the EC50 was > 11 µM (inactive).

As to `Cc1ccc(/C=C2/Sc3ccc(C(=O)N4CCC5(CC4)OCCO5)cc3NC2=O)cc1`, the EC50 is > 11 µM (inactive).

As for `CS/C(=N\S(=O)(=O)c1cccs1)Nc1cccc(Cl)c1C`, the EC50 was > 11 µM (inactive).

`N#CC1=C(N)OC2=C(C(=O)CCC2)C1c1ccc(OC(=O)N2CCOCC2)cc1` (stereo unspecified): the EC50 was > 11 µM (inactive).

With `N#CC(c1nc2ccccc2nc1OCCO)S(=O)(=O)c1ccccc1` (stereo unspecified), the EC50 is > 11 µM (inactive).

`O=[N+]([O-])c1ccc(/C=N/n2cnc3ccccc32)s1`: the EC50 is > 11 µM (inactive).

With `O=C(NCCF)C1Nc2ccc(OC(F)(F)F)cc2C2C=CCC12` (stereo unspecified), the EC50 is > 11 µM (inactive).

As to `O=C(N[C@H]1CP(=O)(Oc2ccccc2)O[C@H](COCc2ccccc2)[C@H]1O)C(Cl)(Cl)Cl` (stereo partly specified), the EC50 is > 11 µM (inactive).

As for `O=C(COC(=O)CCc1c[nH]c(=O)[nH]1)Nc1ccccc1Cl`, the EC50 was > 11 µM (inactive).

In the case of `CCCCOc1c(Br)cc(/C=N/O)cc1OCC`, the EC50 was > 11 µM (inactive).

`COc1ccc(OC)c(N=Cc2c(O)n(Cc3ccccc3)c(=S)[nH]c2=O)c1`: the EC50 was > 11 µM (inactive).

As for `NC(=O)c1snnc1-c1ccccc1`, the EC50 was > 11 µM (inactive).

As to `CCOC(=O)C1=C(O)/C(=C/c2cn(CC(=O)N3CCCC3)c3ccccc23)SC1=Nc1ccccc1`, the EC50 was > 11 µM (inactive).

Take `CCOc1ccc(N2C(=O)/C(=C/c3ccc(C)o3)C(=O)NC2=S)cc1`: the EC50 is > 11 µM (inactive).

Regarding `COc1ccc(C2=CC3=C(Br)C(=O)C(C)(OC(=O)c4cccs4)C(=O)C3=CO2)cc1` (stereo unspecified), the EC50 is > 11 µM (inactive).

Turning to `N=c1c(C(=O)NCC2CCCO2)cc2c(=O)n3ccccc3nc2n1Cc1ccccc1Cl` (stereo unspecified), the EC50 is > 11 µM (inactive).

In the case of `CCOC(=O)C1Nc2ccc(OC(F)(F)F)cc2C2C=CCC12` (stereo unspecified), the EC50 is > 11 µM (inactive).

For `O=C(c1ccco1)N1CCN(c2ncnc3c(-c4ccc(Cl)cc4)nsc23)CC1`, the EC50 was > 11 µM (inactive).

For `Cc1cc(/C=c2/sc3nc4ccccc4n3c2=O)c(C)n1-c1ccccn1`, the EC50 is > 11 µM (inactive).

In the case of `COc1cc2c(cc1C1C(C#N)=C(N)OC3=C1C(=O)CC(C)(C)C3)OCO2` (stereo unspecified), the EC50 was > 11 µM (inactive).
